Results reported in article PMC8755628 (Pharmacological research, 2021).

Molecular target: MET (Homo sapiens, UniProt P08581)
Experiment: MET kinase assay
Type: biochemical

Chain of MET (P08581 25-307): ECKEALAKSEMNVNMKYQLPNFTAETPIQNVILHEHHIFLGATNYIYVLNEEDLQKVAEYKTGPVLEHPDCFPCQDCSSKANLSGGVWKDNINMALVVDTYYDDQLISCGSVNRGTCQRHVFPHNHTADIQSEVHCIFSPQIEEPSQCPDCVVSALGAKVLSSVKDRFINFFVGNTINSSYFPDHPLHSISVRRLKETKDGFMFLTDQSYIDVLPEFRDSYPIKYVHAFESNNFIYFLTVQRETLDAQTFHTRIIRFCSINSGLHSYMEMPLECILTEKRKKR
Chain of MET (P08581 308-1390): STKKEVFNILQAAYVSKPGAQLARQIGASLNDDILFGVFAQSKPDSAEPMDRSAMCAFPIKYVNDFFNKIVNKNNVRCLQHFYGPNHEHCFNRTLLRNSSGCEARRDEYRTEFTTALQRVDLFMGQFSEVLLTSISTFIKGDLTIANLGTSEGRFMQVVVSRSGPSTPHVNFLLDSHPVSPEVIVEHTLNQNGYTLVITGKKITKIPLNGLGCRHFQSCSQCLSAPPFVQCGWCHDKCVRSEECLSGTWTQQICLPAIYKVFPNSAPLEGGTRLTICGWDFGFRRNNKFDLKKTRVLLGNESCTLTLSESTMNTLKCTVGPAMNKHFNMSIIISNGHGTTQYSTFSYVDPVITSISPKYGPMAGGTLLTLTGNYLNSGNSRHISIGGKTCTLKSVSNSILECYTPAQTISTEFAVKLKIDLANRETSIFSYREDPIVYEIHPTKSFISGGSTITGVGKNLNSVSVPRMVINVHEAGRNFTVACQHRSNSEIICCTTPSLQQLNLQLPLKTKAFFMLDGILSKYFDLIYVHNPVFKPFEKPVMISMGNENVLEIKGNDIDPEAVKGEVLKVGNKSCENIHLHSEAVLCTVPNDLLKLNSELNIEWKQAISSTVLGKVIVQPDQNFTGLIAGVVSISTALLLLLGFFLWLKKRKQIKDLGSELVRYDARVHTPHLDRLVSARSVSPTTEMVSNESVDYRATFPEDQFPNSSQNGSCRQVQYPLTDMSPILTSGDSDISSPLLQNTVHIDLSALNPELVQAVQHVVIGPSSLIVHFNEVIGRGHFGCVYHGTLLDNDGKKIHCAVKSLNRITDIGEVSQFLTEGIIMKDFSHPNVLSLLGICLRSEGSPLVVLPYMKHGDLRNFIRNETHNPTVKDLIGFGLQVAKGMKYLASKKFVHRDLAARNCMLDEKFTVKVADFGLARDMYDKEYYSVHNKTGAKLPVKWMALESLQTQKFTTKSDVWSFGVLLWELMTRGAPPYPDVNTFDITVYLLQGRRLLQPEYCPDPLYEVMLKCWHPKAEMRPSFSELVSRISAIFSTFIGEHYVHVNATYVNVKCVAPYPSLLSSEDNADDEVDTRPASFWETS

`COc1ccc2cc3[n+](cc2c1OC)CCc1cc2c(cc1-3)OCO2` [BBR, Berberine] gave an IC50 of 19.6 µM.
